Measured values as given in ChEMBL document CHEMBL5550081, “Is it still worth renewing nucleoside anticancer drugs nowadays?” (Eur J Med Chem, 2024).

Tests used:
MDA-MB-231 [1] = test: Antiproliferative activity against human MDA-MB-231 cells assessed as reduction in cell growth incubated for 72 hrs by SRB assay; format: functional, cell-based; conditions: MDA-MB-231, 72 h
SNU-638 = test: Antiproliferative activity against human SNU-638 cells assessed as reduction in cell growth incubated for 72 hrs by SRB assay; format: functional, cell-based; conditions: SNU-638, 72 h
A549 [2] = test: Antiproliferative activity against human A549 cells assessed as reduction in cell growth incubated for 72 hrs by SRB assay; format: functional, cell-based; conditions: A549, 72 h
HCT-116 [3] = test: Antiproliferative activity against human HCT-116 cells assessed as reduction in cell growth incubated for 72 hrs by SRB assay; format: functional, cell-based; conditions: HCT-116, 72 h
SK-HEP1 [4] = test: Antiproliferative activity against human SK-HEP1 cells assessed as reduction in cell growth incubated for 72 hrs by SRB assay; format: functional, cell-based; conditions: SK-HEP1, 72 h
PC-3 [5] = test: Antiproliferative activity against human PC-3 cells assessed as reduction in cell growth incubated for 72 hrs by SRB assay; format: functional, cell-based; conditions: PC-3, 72 h
HCT-116 [6] = test: Cytotoxicity against human HCT-116 cells assessed as reduction in cell growth incubated for 72 hrs by MTT assay; format: functional, cell-based; conditions: HCT-116, 72 h
U-937 = test: Cytotoxicity against human U-937 cells assessed as reduction in cell growth incubated for 72 hrs by MTT assay; format: functional, cell-based; conditions: U-937, 72 h
HeLa [7] = test: Antiproliferative activity against human HeLa cells assessed as reduction in cell viability incubated for 24 hrs by MTT assay; format: functional, cell-based
PC-3 [8] = test: Antiproliferative activity against human PC-3 cells assessed as reduction in cell growth incubated for 24 hrs by MTT assay; format: functional, cell-based; conditions: PC-3, 24 h
IMR-32 = test: Cytotoxicity against human IMR-32 cells assessed as reduction in cell viability incubated for 48 hrs by MTT assay; format: functional, cell-based; conditions: IMR-32, 48 h
PC-3 [9] = test: cells; conditions: Homo sapiens, PC-3, 48 h
MCF7 [10] = test: cells; conditions: Homo sapiens, MCF7, 48 h
MCF7 [11] = test: Cytotoxicity against human MCF7 cells assessed as reduction in cell growth incubated for 24 hrs by MTT assay; format: functional, cell-based; conditions: MCF7, 24 h
MDA-MB-231 [12] = test: Cytotoxicity against human MDA-MB-231 cells assessed as reduction in cell growth incubated for 24 hrs by MTT assay; format: functional, cell-based; conditions: MDA-MB-231, 24 h
A549 [13] = test: Cytotoxicity against human A549 cells assessed as reduction in cell growth incubated for 24 hrs by MTT assay; format: functional, cell-based; conditions: A549, 24 h
Ishikawa = test: Cytotoxicity against human Ishikawa cells; format: functional, cell-based
HeLa [14] = test: Cytotoxicity against human HeLa cells; format: functional, cell-based
L929 = test: Cytotoxicity against mouse L929 cells assessed as reduction in cell viability; format: functional, cell-based
SARS-CoV-2 = test: Antiviral activity against SARS-CoV-2 infected in African green monkey Vero E6 cells assessed as inhibition of viral replication by qRT-PCR analysis; format: functional, organism-based; conditions: Severe acute respiratory syndrome coronavirus 2, Vero C1008
PANC-1 [15] = test: Antiproliferative activity against human PANC-1 cells assessed as reduction in cell viability incubated for 24 hrs by MTT assay; format: functional, cell-based; conditions: PANC-1, 24 h
PANC-1 [16] = test: Cytotoxicity against human PANC-1 cells; format: functional
U-87 MG = test: Cytotoxicity against human U-87 MG cells; format: functional, U-87MG ATCC
A549 [17] = test: Cytotoxicity against human A549 cells; format: functional, cell-based
HCT-116 [18] = test: Cytotoxicity against human HCT-116 cells; format: functional, cell-based
SK-HEP1 [19] = test: Cytotoxicity against human SK-HEP1 cells; format: functional, cell-based
MCF7 [20] = test: Cytotoxicity against human MCF7 cells assessed as reduction in cell viability measured for 48 hrs by MTT assay; format: functional
A549 [21] = test: Cytotoxicity against human A549 cells assessed as reduction in cell viability measured for 48 hrs by MTT assay; format: functional
Z-138 = test: Antiproliferative activity against human Z138 cells assessed as cell growth inhibition incubated for 48 hrs by MTT assay; format: functional, cell-based; conditions: Z-138, 48 h
MCF7 [22] = test: Antiproliferative activity against human MCF7 cells assessed as cell growth inhibition incubated for 48 hrs by MTT assay; format: functional, cell-based; conditions: MCF7, 48 h
PRMT5/MEP50 complex = PRMT5/MEP50 complex (Homo sapiens, UniProt O14744); test: Inhibition of PRMT5/MEP50 (unknown origin); format: cell-based, HCC4006
[23] = Inhibition of Hepatitis C virus NS5B polymerase; design: species or system Hepacivirus hominis
MDA-MB-231 [24] = test: Anticancer activity against human MDA-MB-231 cells; format: functional, cell-based

PRMT5/MEP50 complex, sequence (O14744 whole entry): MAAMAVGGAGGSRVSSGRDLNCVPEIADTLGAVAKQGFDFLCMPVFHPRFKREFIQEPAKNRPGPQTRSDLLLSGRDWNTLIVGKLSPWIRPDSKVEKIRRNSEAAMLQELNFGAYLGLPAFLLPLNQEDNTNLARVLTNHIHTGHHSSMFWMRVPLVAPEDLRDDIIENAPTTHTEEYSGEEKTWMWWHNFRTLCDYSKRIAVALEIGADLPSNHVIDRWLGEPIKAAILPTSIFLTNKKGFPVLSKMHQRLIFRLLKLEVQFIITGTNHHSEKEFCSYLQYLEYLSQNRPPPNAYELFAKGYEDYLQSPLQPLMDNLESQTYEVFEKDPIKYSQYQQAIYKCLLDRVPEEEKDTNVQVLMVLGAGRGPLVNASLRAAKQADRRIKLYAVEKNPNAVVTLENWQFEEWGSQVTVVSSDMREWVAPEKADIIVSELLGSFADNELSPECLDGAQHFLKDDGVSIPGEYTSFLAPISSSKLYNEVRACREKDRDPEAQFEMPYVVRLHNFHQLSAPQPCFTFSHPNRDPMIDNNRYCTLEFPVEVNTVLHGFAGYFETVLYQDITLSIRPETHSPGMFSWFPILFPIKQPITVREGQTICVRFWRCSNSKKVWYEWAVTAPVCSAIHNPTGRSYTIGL
PRMT5/MEP50 complex, sequence (Q9BQA1 whole entry, further chain): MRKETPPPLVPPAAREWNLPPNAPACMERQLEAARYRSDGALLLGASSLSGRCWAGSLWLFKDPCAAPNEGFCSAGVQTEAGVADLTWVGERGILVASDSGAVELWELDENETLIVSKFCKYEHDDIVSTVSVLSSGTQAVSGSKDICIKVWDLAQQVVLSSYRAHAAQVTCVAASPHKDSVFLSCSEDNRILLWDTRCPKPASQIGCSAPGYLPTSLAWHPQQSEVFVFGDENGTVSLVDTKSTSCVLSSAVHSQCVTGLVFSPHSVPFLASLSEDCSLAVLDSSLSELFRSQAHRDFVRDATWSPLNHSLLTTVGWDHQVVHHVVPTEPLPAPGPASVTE

C#Cc1cn([C@@H]2S[C@H](CO)[C@@H](O)[C@H]2O)c2ncnc(N)c12
IC50 (MDA-MB-231 [1]): 50 nM
IC50 (SNU-638): 30 nM
IC50 (A549 [2]): 60 nM
IC50 (HCT-116 [3]): 30 nM
IC50 (SK-HEP1 [4]): 50 nM
IC50 (PC-3 [5]): 4 nM

Nc1ncnc2c1ncn2Cc1ccc(-c2cn(CCCCCCC(=O)NO)nn2)cc1
IC50 (HCT-116 [6]): 17400 nM
IC50 (U-937): 1320 nM

C[C@H](CCC(=O)OCc1cn(C[C@H]2O[C@@H](n3ccc(=O)[nH]c3=O)[C@@H]3OC(C)(C)O[C@@H]32)nn1)[C@H]1CC[C@H]2[C@@H]3[C@H](O)C[C@@H]4C[C@H](O)CC[C@]4(C)[C@H]3C[C@H](O)[C@]12C
IC50 (HeLa [7]): 96000 nM
IC50 (PC-3 [8]): 17900 nM
IC50 (IMR-32): 16800 nM
IC50 (PC-3 [9]): 17900 nM
IC50 (MCF7 [10]): 8080 nM

CC(=O)Nc1ccn(-c2nnc(Cn3cnc4c3c(=O)n(C)c(=O)n4C)o2)c(=O)n1
IC50 (MCF7 [11]): 25200 nM
IC50 (MDA-MB-231 [12]): 24700 nM
IC50 (A549 [13]): 20400 nM

Nc1ccn([C@@H]2O[C@H](CO)[C@@H](O)C2(F)F)c(=O)n1 [GEMCITABINE]
IC50 (Ishikawa): 20300 nM
IC50 (HeLa [14]): 240 nM
IC50 (L929): 230 nM

[2H]C([2H])(O)[C@H]1O[C@@](C#N)(c2ccc3c(N)ncnn23)[C@H](O)[C@@H]1O
EC50 (SARS-CoV-2): 250 nM

O=c1[nH]c(=O)n(C[C@H](O)CO)cc1C#Cc1cc2ccccc2c2ccccc12
IC50 (HeLa [7]): 39300 nM
IC50 (PANC-1 [15]): 39300 nM
IC50 (Ishikawa): 50200 nM
IC50 (HeLa [14]): 39300 nM
IC50 (L929): 38400 nM

Nc1ccn([C@@H]2S[C@H](CO)[C@@H](O)[C@@H]2O)c(=O)n1 [THIARABINE]
CC50 (PANC-1 [16]): 590 nM
CC50 (U-87 MG): 590 nM

Nc1ncnc2c1c1sc3c4sccc4sc3c1n2[C@H]1C[C@@H](O)[C@@H](CO)O1
IC50 (A549 [17]): 14200 nM
IC50 (HCT-116 [18]): 1910 nM
IC50 (SK-HEP1 [19]): 480 nM

COc1cccc2c1C(=O)c1c(O)c3c(c(O)c1C2=O)C[C@@](O)(C(=O)CO)C[C@@H]3O[C@H]1C[C@H](N)[C@H](O)[C@H](C)O1 [DOXORUBICIN]
CC50 (MCF7 [20]): 900 nM
CC50 (A549 [21]): 30 nM
IC50 (IMR-32): 43 nM
IC50 (PC-3 [9]): 336 nM
IC50 (MCF7 [10]): 440 nM

Cc1ncnc2c1ccn2[C@@H]1O[C@@H]2[C@H](Cc3ccc4cc(Br)c(N)nc4c3)OC[C@]2(O)[C@H]1O
IC50 (Z-138): 15 nM
IC50 (MCF7 [22]): 3 nM
IC50 (PRMT5/MEP50 complex): 0.8 nM

Nc1ncnc2c1ncn2[C@@H]1OC2(CC[C@H]2O)[C@@H](O)[C@H]1O (stereo not given in full)
IC50 (PRMT5/MEP50 complex): 900 nM

CCCCCCCCCCCCc1ccc(-n2cc(CNCCO)nn2)cc1
IC50 (PANC-1 [15]): 4900 nM
IC50 (PC-3 [8]): 11000 nM

C=C(N)NCCOc1cccc2c1Nc1nc(=O)n([C@@H]3O[C@H](CO)[C@@H](O)[C@H]3O)cc1O2
CC50 (MCF7 [20]): 4300 nM
CC50 (A549 [21]): 800 nM

C#C[C@@]1(N)[C@H](O)[C@@H](CO)O[C@H]1n1cnc2c(=O)[nH]c(N)nc21
IC50 [23]: 1100 nM

[N-]=[N+]=N[C@@H]1[C@@H](O)[C@H](n2c(-c3c4ccccc4cc4ccccc34)nc3ccccc32)O[C@@H]1CO
IC50 (MDA-MB-231 [24]): 420 nM
